The supplement of paper PMC10307832

Compound: CS(=O)(=O)CCNCc1ccc(-c2ccc3ncnc(Nc4ccc(OCc5cccc(F)c5)c(Cl)c4)c3c2)o1 [Lapatinib] + NC(=O)Nc1cc(-c2cccc(F)c2)sc1C(=O)N[C@H]1CCCNC1 [AZD7762] (partner 0.2 µM)
Test: relative viability (nuclei count vs DMSO), 5 days (fraction); higher = more cells survive
How it was run: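 For relative viability, nuclei counts in treated wells were divided by those in vehicle wells. Lung cancer cell lines had been pin-tool dosed in 1536-well plates the day after seeding and cultured for 5 days, then fixed and stained in one step (final 0.05% Triton X-100, 1% formaldehyde, 1 ug/ml Hoechst) and imaged at 4×. Doses were one drug alone or a fixed anchor-drug dose plus five library-drug doses (not always all listed) in √10 steps, and values are duplicate-plate medians.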

Row | Cell Line | relative viability (first compound 0.02 µM) | relative viability (first compound 0.06325 µM) | relative viability (first compound 0.2 µM) | relative viability (first compound 0.6325 µM) | relative viability (first compound 2 µM)
1 | NCI-H1651 | 0.468 | 0.451 | 0.337 | 0.41 | 0.402
2 | NCI-H1703 |  | 0.119 |  | 0.121 | 0.113
3 | NCI-H522 |  | 0.731 | 0.845 | 1.07 | 0.612
4 | HCC-366 |  | 0.245 | 0.205 | 0.247 | 0.133
5 | NCI-H1437 | 1.13 | 1.11 | 1.1 | 1.07 | 1.06
6 | NCI-H460 |  | 0.62 | 0.679 | 0.537 | 0.387
7 | LK-2 | 0.393 |  | 0.379 |  | 0.636
8 | NCI-H358 | 0.459 | 0.364 | 0.379 | 0.388 | 0.282
9 | NCI-H2085 | 0.881 | 0.886 | 0.929 | 0.797 | 0.526
10 | NCI-H2405 |  | 0.682 |  | 0.759 | 0.617
11 | NCI-H1666 | 0.573 | 0.815 | 0.762 | 0.778 | 0.619
12 | NCI-H322M | 0.557 | 0.538 | 0.536 | 0.475 | 0.454
13 | CAL-12T |  | 0.615 | 0.515 | 0.587 | 0.592
14 | NCI-H1395 |  | 0.364 | 0.428 | 0.383 | 0.414
15 | NCI-H3122 | 0.959 | 0.9 | 0.999 | 1.04 | 0.973
16 | HARA | 0.174 | 0.379 | 0.51 | 0.344 | 0.247
17 | PC-3 [JPC-3] |  | 0.477 |  | 0.655 | 0.414
18 | NCI-H838 | 0.927 | 0.832 | 0.904 | 0.939 | 0.843
19 | NCI-H647 |  | 0.573 | 0.43 | 0.583 | 0.401
20 | NCI-H1993 | 0.615 |  | 0.86 | 0.499 | 0.455
21 | LCLC-97TM1 |  |  | 0.178 | 0.224 | 0.259

Row | Cell Line | relative viability (first compound 0.02 µM) | relative viability (first compound 0.06325 µM) | relative viability (first compound 0.2 µM) | relative viability (first compound 0.6325 µM) | relative viability (first compound 2 µM)
22 | EKVX |  | 0.518 | 0.693 | 0.708 | 0.663
23 | NCI-H596 |  | 0.878 | 0.939 | 1.1 | 0.819
24 | NCI-H1975 | 0.821 | 0.592 | 0.617 | 0.538 | 0.5
25 | HCC-78 |  | 0.528 | 0.422 | 0.599 | 0.564
26 | H3255 | 0.818 | 0.892 | 0.799 | 0.664 | 0.501
27 | RERF-LC-KJ | 0.391 | 0.936 | 0.717 | 0.877 | 0.707
28 | HCC-44 | 0.984 | 1.03 | 1.02 | 1.01 | 0.893
29 | NCI-H23 |  |  | 0.216 | 0.232 | 0.154
30 | HCC-15 |  | 1.09 | 1.24 | 1.24 | 1.16
31 | LU99A | 0.329 | 0.217 | 0.363 | 0.388 | 0.329
32 | HOP-62 |  | 0.526 | 0.669 | 0.501 | 0.568
33 | NCI-H1648 |  | 0.921 | 0.612 | 0.643 | 0.658
34 | NCI-H1793 |  | 0.355 | 0.304 | 0.437 | 0.186
35 | SW 900 |  | 0.549 | 0.549 | 0.591 | 0.466
36 | LXF-289 | 1.02 | 1.09 | 1.05 | 1.13 | 0.957
37 | HCC-827 | 0.172 | 0.299 | 0.129 | 0.19 | 0.103
38 | PC-14 | 0.362 | 0.331 | 0.301 | 0.295 | 0.138
39 | NCI-H1915 |  | 0.71 | 0.685 | 0.705 | 0.592
40 | LCLC-103H | 0.61 | 0.575 | 0.791 | 0.836 | 0.727
41 | EPLC-272H |  | 0.191 | 0.228 | 0.175 | 0.252
42 | NCI-H1792 |  |  | 0.568 | 0.665 | 0.365

Row | Cell Line | relative viability (first compound 0.02 µM) | relative viability (first compound 0.06325 µM) | relative viability (first compound 0.2 µM) | relative viability (first compound 0.6325 µM) | relative viability (first compound 2 µM)
43 | NCI-H2126 | 0.55 | 0.927 | 0.983 | 0.975 | 0.928
44 | NCI-H2342 | 0.421 | 0.408 | 0.381 | 0.447 | 0.394
45 | ABC-1 |  | 0.73 | 0.821 | 0.774 | 1.07
46 | NCI-H2170 | 0.824 | 0.574 | 0.485 | 0.252 | 0.14
47 | NCI-H650 |  | 0.735 | 1.03 | 1.04 | 0.977
48 | LOU-NH91 | 0.76 | 0.58 | 0.696 | 0.703 | 0.599
49 | LC-2-ad |  | 0.562 | 0.768 | 0.684 | 0.552
50 | NCI-H1355 | 0.674 | 0.627 | 0.72 | 0.753 | 0.549
51 | NCI-H2347 | 0.495 | 0.705 | 0.637 | 0.81 | 0.612
52 | NCI-H441 | 1.17 |  | 1.15 | 0.856 | 1.14
53 | NCI-H1944 | 0.504 | 0.453 | 0.51 | 0.47 | 0.379
54 | 201T | 0.513 | 0.585 | 0.601 | 0.591 | 0.608
55 | NCI-H2087 | 1.5 | 1.47 | 1.17 | 1.36 | 1.25
56 | BEN | 0.499 | 0.704 | 0.587 | 0.855 | 0.556
57 | ChaGo-K-1 | 0.703 | 0.805 | 0.926 | 0.942 | 0.882
58 | NCI-H1755 | 0.449 | 0.402 | 0.371 | 0.433 | 0.541
59 | EMC-BAC-2 |  | 0.938 | 1.05 | 1.13 | 1.18
60 | NCI-H1734 |  | 0.42 | 0.587 | 0.507 | 0.541
61 | NCI-H727 | 0.634 |  | 0.443 | 0.551 | 0.395
62 | A-427 | 0.709 | 0.658 | 0.745 | 0.793 | 0.681
